# Patent publication US10508089B2, “Use of N-(1,3,4-Oxadiazol-2-yl)arylcarboxamides or their salts for controlling unwanted plants in areas of transgenic crop plants being tolerant to HPPD inhibitor herbicides” (BASF SE, priority 2014, dated 2019)
# Read-outs that look alike come from different tables or passages of the source.
# Experiments:
# [1] = tested on: T2 soybean events expressing PfHPPD-Evo33; format: in vivo; conditions: 14 days after treatment
# [2] = tested on: T3 cotton events expressing PfHPPD-Evo33; format: in vivo; conditions: 200 g Al/ha, post-emergence V3, scored after 14 days, field
# [3] = biological target: PfHPPD Evo 40 SEQ ID No 27 (Pseudomonas sp., UniProt P80064, A172V/A339E/A53E/D148E/D45N/E105D/E287Q/E300V/E334P/F143Y/G286D/G335S/H150N/H254A/H63N/I158V/I187A/I249V/K92N/L18F/N24G/N280D/S245T/S257K/S301E/T205S/V65I); assay: biochemical; design: species or system Pseudomonas fluorescens
# [4] = biological target: PfHPPD Evo 41 SEQ ID No 29 (Pseudomonas sp., UniProt P80064, A172V/A339Q/A53E/D148E/D45N/E105D/E287Q/E300V/E334P/F143Y/G286D/G335W/H150N/H254A/H63N/I158V/I187A/I249V/K338A/K92N/L18F/N24G/N280D/S245T/S257K/S301E/T205S/V65I); assay: biochemical; design: species or system Pseudomonas fluorescens
# [5] = tested on: wild type soybean Merlin; format: in vivo; conditions: 14 days after treatment, total 4
# [6] = tested on: T3 cotton events expressing PfHPPD-Evo41; format: in vivo; conditions: 200 g Al/ha, post-emergence V3, scored after 14 days, field
# [7] = tested on: T2 soybean events expressing PfHPPD-W336 (PfHPPD-G336W); format: in vivo; conditions: 6.25 g Al/ha, 14 days after treatment, total 12
# PfHPPD Evo 41 SEQ ID No 29, sequence (P80064 1-354 with tags or gaps with the stated changes limits assumed): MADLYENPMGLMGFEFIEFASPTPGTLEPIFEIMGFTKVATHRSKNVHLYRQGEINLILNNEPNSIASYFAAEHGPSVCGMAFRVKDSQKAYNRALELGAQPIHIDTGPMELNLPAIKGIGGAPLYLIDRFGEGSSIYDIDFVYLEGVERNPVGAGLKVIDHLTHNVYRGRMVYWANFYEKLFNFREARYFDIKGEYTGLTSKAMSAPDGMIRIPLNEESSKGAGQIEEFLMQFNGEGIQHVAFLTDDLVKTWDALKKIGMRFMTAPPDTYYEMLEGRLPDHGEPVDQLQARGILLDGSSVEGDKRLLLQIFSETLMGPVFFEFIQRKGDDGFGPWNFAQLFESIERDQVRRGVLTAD
# PfHPPD Evo 40 SEQ ID No 27, sequence (P80064 1-354 with tags or gaps with the stated changes limits assumed): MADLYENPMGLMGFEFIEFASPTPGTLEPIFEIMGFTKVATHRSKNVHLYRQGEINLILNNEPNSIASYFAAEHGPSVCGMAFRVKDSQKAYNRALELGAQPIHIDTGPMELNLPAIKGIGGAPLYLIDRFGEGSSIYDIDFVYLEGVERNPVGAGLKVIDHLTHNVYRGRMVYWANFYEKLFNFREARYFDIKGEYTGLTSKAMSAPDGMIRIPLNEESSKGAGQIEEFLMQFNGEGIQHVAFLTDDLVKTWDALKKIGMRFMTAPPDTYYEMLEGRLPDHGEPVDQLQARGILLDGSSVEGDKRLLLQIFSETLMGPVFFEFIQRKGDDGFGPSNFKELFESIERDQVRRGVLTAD
smiles,measurement,setting,value
Cc1nnc(NC(=O)c2ccc(C(F)(F)F)c(S(C)(=O)=O)c2C)o1 [Compound 2-145],Number of plants categorized herbicide tolerance “0” (marginal; 41%-100% damaged leaf area),"[1]; 6.25 g Al/ha, total 12",0
same,Number of plants categorized herbicide tolerance “1” (moderate; 26%-40% damaged leaf area),"[1]; 6.25 g Al/ha, total 12",0
same,Number of plants categorized herbicide tolerance “2” (good; 16%-25% damaged leaf area),"[1]; 6.25 g Al/ha, total 12",0
same,Number of plants categorized herbicide tolerance “3” (high; less than or equal to 15% damaged leaf area),"[1]; 6.25 g Al/ha, total 12",12
same,Number of plants categorized herbicide tolerance “0” (marginal; 41%-100% damaged leaf area),"[1]; 25 g Al/ha, total 16",1
same,Number of plants categorized herbicide tolerance “1” (moderate; 26%-40% damaged leaf area),"[1]; 25 g Al/ha, total 16",1
same,Number of plants categorized herbicide tolerance “2” (good; 16%-25% damaged leaf area),"[1]; 25 g Al/ha, total 16",0
same,Number of plants categorized herbicide tolerance “3” (high; less than or equal to 15% damaged leaf area),"[1]; 25 g Al/ha, total 16",14
same,Number of plants categorized herbicide tolerance “0” (marginal; 41%-100% damaged leaf area),"[1]; 50 g Al/ha, total 4",0
same,Number of plants categorized herbicide tolerance “1” (moderate; 26%-40% damaged leaf area),"[1]; 50 g Al/ha, total 4",0
same,Number of plants categorized herbicide tolerance “2” (good; 16%-25% damaged leaf area),"[1]; 50 g Al/ha, total 4",1
same,Number of plants categorized herbicide tolerance “3” (high; less than or equal to 15% damaged leaf area),"[1]; 50 g Al/ha, total 4",3
same,Number of plants categorized herbicide tolerance “0” (marginal; 41%-100% damaged leaf area),"[1]; 75 g Al/ha, total 4",0
same,Number of plants categorized herbicide tolerance “1” (moderate; 26%-40% damaged leaf area),"[1]; 75 g Al/ha, total 4",0
same,Number of plants categorized herbicide tolerance “2” (good; 16%-25% damaged leaf area),"[1]; 75 g Al/ha, total 4",0
same,Number of plants categorized herbicide tolerance “3” (high; less than or equal to 15% damaged leaf area),"[1]; 75 g Al/ha, total 4",4
same,Average maximum phytotoxicity scoring,[2]; cotton event Evo33/1,3 (“3” = high tolerance; 0%-10% damaged leaf area)
same,Average maximum phytotoxicity scoring,[2]; cotton event Evo33/2,3 (“3” = high tolerance; 0%-10% damaged leaf area)
same,Average maximum phytotoxicity scoring,[2]; cotton event Evo33/3,3 (“3” = high tolerance; 0%-10% damaged leaf area)
same,Average maximum phytotoxicity scoring,[2]; cotton event Evo33/4,3 (“3” = high tolerance; 0%-10% damaged leaf area)
same,Average maximum phytotoxicity scoring,[2]; cotton event Evo33/5,3 (“3” = high tolerance; 0%-10% damaged leaf area)
same,Average maximum phytotoxicity scoring,[2]; cotton event Evo33/6,3 (“3” = high tolerance; 0%-10% damaged leaf area)
same,IC50,[3],5.01 µM
same,IC50,[4],5.01 µM
same,Number of plants categorized herbicide tolerance “0” (marginal; 41%-100% damaged leaf area),"[5]; Merlin (wt), 6.25 g Al/ha",4
same,Number of plants categorized herbicide tolerance “1” (moderate; 26%-40% damaged leaf area),"[5]; Merlin (wt), 6.25 g Al/ha",0
same,Number of plants categorized herbicide tolerance “2” (good; 16%-25% damaged leaf area),"[5]; Merlin (wt), 6.25 g Al/ha",0
same,Number of plants categorized herbicide tolerance “3” (high; less than or equal to 15% damaged leaf area),"[5]; Merlin (wt), 6.25 g Al/ha",0
same,Number of plants categorized herbicide tolerance “0” (marginal; 41%-100% damaged leaf area),"[5]; Merlin, 25 g Al/ha",4
same,Number of plants categorized herbicide tolerance “1” (moderate; 26%-40% damaged leaf area),"[5]; Merlin, 25 g Al/ha",0
same,Number of plants categorized herbicide tolerance “2” (good; 16%-25% damaged leaf area),"[5]; Merlin, 25 g Al/ha",0
same,Number of plants categorized herbicide tolerance “3” (high; less than or equal to 15% damaged leaf area),"[5]; Merlin, 25 g Al/ha",0
same,Average maximum phytotoxicity scoring,[6]; cotton event Evo41/1,3 (“3” = high tolerance; 0%-10% damaged leaf area)
same,Average maximum phytotoxicity scoring,[6]; cotton event Evo41/2,3 (“3” = high tolerance; 0%-10% damaged leaf area)
same,Average maximum phytotoxicity scoring,[6]; cotton event Evo41/3,3 (“3” = high tolerance; 0%-10% damaged leaf area)
same,Average maximum phytotoxicity scoring,[6]; cotton event Evo41/4,3 (“3” = high tolerance; 0%-10% damaged leaf area)
same,Average maximum phytotoxicity scoring,[6]; cotton event Evo41/5,3 (“3” = high tolerance; 0%-10% damaged leaf area)
same,Average maximum phytotoxicity scoring,[6]; cotton event Evo41/6,3 (“3” = high tolerance; 0%-10% damaged leaf area)
same,Average maximum phytotoxicity scoring,[6]; cotton event Evo41/7,3 (“3” = high tolerance; 0%-10% damaged leaf area)
same,Average maximum phytotoxicity scoring,[6]; cotton event Evo41/8,3 (“3” = high tolerance; 0%-10% damaged leaf area)
same,Average maximum phytotoxicity scoring,[6]; cotton event Evo41/9,3 (“3” = high tolerance; 0%-10% damaged leaf area)
same,Average maximum phytotoxicity scoring,[6]; cotton event Evo41/10,3 (“3” = high tolerance; 0%-10% damaged leaf area)
same,Average maximum phytotoxicity scoring,[6]; cotton event Evo41/11,3 (“3” = high tolerance; 0%-10% damaged leaf area)
same,Average maximum phytotoxicity scoring,[6]; cotton event Evo41/12,2 (“2” = good tolerance; 11%-15% damaged leaf area)
same,Average maximum phytotoxicity scoring,[6]; cotton event Evo41/13,3 (“3” = high tolerance; 0%-10% damaged leaf area)
same,Average maximum phytotoxicity scoring,[6]; cotton event Evo41/14,3 (“3” = high tolerance; 0%-10% damaged leaf area)
same,Average maximum phytotoxicity scoring,[6]; cotton event Evo41/15,3 (“3” = high tolerance; 0%-10% damaged leaf area)
same,Number of plants categorized herbicide tolerance “0” (marginal; 41%-100% damaged leaf area),[7],1
same,Number of plants categorized herbicide tolerance “1” (moderate; 26%-40% damaged leaf area),[7],0
same,Number of plants categorized herbicide tolerance “2” (good; 16%-25% damaged leaf area),[7],0
same,Number of plants categorized herbicide tolerance “3” (high; less than or equal to 15% damaged leaf area),[7],11
